Measurements reported in patent publication US10478437B2, “Combination therapy to enhance the anticancer efficacy of platinum drugs” (University of Pittsburgh-of the Commonwealth System of …, priority 2014, dated 2019).
“Also recorded” adds a separate entry of the source.

What was measured:
Assay type in all cases: cell-based, human
[1] = system: cisplatin-resistant ovarian cancer cell line A2780cis; test: Caspase-3/7 activity assay (apoptotic cell death), compound alone or with cisplatin; conditions: for activation of Caspase-3/7 in combination with cisplatin compared to mdivi-1: FIG. 7A and Table 6; for activation of Caspase-3/7 in combination with cisplatin compared to mdivi-1 / activity in the screen (Caspase-3/7 activity and microscopic examination), active / inactive / Caspase-3/7 activity upon combination with cisplatin compared to cisplatin alone or compound alone: in words; for caspase-3/7 activity (Lum), compound with cisplatin: compound 20 μM with 20 μM cisplatin; for caspase-3/7 activity (Lum), compound with cisplatin / caspase-3/7 activity (Lum), compound alone / caspase-3/7 activity (Lum) with compound and cisplatin (20 μM) / caspase-3/7 activity (Lum) with compound alone: 20 h; for caspase-3/7 activity (Lum) with compound and cisplatin (20 μM) / caspase-3/7 activity (Lum) with compound alone: Table 6; for caspase-3/7 activity (Lum) with compound alone: untreated cells 9 ± 1; for activity in the screen (Caspase-3/7 activity and microscopic examination), active / inactive: alone or in the presence of cisplatin
Protocol: Cell proliferation was determined using a CyQUANT Direct Cell Proliferation Assay kit (Invitrogen), the activity of caspase-3/7 was measured using a Caspase-Glo 3/7 Assay Systems (Promega, Madison, Wis.), and the MTS calorimetric survival assay was performed using the CellTiter 96 AQueous One Solution Cell Proliferation Assay kit (Promega, Madison, Wis.), according to the manufacturer's instructions. The survival fractions were calculated after setting untreated control cells at 100%. The data were plotted and curve fitted using GraphPad Prism software. To quantify the number of cells with active caspase-3, cells were fixed with 4% paraformaldehyde (Electron microscopy sciences, Hatfield, Pa.), stained with Alexa Fluor-488 conjugated antibody against cleaved caspase-3 (Asp175) (Cell Signaling Technology, Danvers, Mass.) followed by flow cytometry. An FITC Annexin V Apoptosis Detection Kit (BD PharMingen, San Diego, Calif.) was used to quantify apoptotic cells, according to the manufacturer's instructions.
A Caspase-3/7 assay was performed to evaluate the activity of the 36 compounds of FIG. 1 in vitro in the cisplatin-resistant ovarian cancer cell line, A2780cis, alone or in the presence of cisplatin. A microscopic examination of apoptotic morphologic changes was also carried out right before the measurement of Caspase-3/7 activity, in order to confirm that the data on the activation of the Caspase-3/7 following treatment is consistent with morphological change and reflects cell death.

[2] = system: cisplatin-resistant ovarian cancer cell line A2780cis; test: CellTiter-Blue cell viability assay, compound alone or with cisplatin or carboplatin, 24 h; conditions: for cell viability after combination with carboplatin compared to carboplatin alone / viability at 10 µM / viability at 20 µM / viability at 50 µM / Survival (%) of cells with compound and carboplatin (200 μM) / survival (%) of cells with compound and cisplatin (20 μM): 24 h; for cell viability after combination with carboplatin compared to carboplatin alone: FIG. 6; for viability at 10 µM / viability at 20 µM / viability at 50 µM: Homo sapiens, A2780cis, untreated cells = 100%, read-out: survival (%) of cells with compound alone; for viability at 10 µM: compound 10 μM; for viability at 20 µM: compound 20 μM; for viability at 50 µM: compound 50 μM
Protocol: Data were expressed as mean±standard deviation. A Student's t test was used for the comparisons between the treatment with the combination of analogs with cisplatin and with analogs alone. P<0.05 was considered statistically significant. Combination index was calculated using CompuSyn software. A value of 0.3-0.7 for the combination index indicates synergism, 0.1-0.3 indicates strong synergism, and <0.1 indicates very strong synergism (Chou, 2006).
To further validate the activity of the identified 11 active compounds (see FIG. 3), a CellTiter-Blue cell viability assay was performed with increasing concentrations (10 μM, 20 μM and 50 μM) of the disclosed compounds (see FIG. 4 and Table 5). Cisplatin resistant ovarian cancer cells (A2780cis) were treated with a disclosed compound alone, cisplatin alone or a combination of a compound with cisplatin for 24 h to determine the effects of the compounds on cell viability.
Analysis of the effect of the disclosed compounds with another platinum-containing compound, carboplatin, was performed. A2780cis cells were treated with carboplatin alone or with the combination of carboplatin and the disclosed compounds at indicated concentrations for 24 h followed by the analysis of cell viability.

[3] = system: A2780cis cells; test: Western blot of caspase/PARP cleavage, Noxa induction, RPA32 and H2AX phosphorylation; conditions: compound 20 μM + cisplatin 20 μM, 20 h, FIG. 7B; in words
Protocol: Whole cell lysate was prepared by lysing cells in cell lysis buffer (Cell signaling technology) containing complete protease inhibitor (Roche). Cell lysates were then cleared at 15,000 rpm for 15 min at 4° C. The protein content was quantified using a Bio-Rad Protein Assay kit (Bio-Rad Laboratories, Hercules, Calif.). The equal amount of protein was separated on Tris-glycine gels (Invitrogen). The separated proteins were blotted onto a polyvinylidene difluoride membrane and blocked overnight at 4° C. in phosphate-buffered saline containing 0.1% Tween 20 and 10% nonfat dry milk (blocking buffer). Membranes were incubated with primary antibodies in blocking buffer overnight at 4° C. Primary antibodies used were: β-actin from Sigma; Bax, Bak, Caspase-9 and cleaved Caspase-3 from Cell Signaling Technology; phospho-Histone H2AX (Ser 139) and Noxa from Millipore. Membranes were then washed and incubated in peroxidase conjugated anti-rabbit IgG (Sigma) or anti-mouse IgG (Sigma) secondary antibody for 1 h at room temperature. Membranes were developed using SuperSignal West Femto Maximum Sensitivity Substrate (Thermo Fisher Scientific).
A2780cis cells were treated with cisplatin alone, compounds alone or in combination with cisplatin at indicated concentrations for 20 h to analyze apoptotic cell death in response to treatment. […] Expression and cleavage of several major caspases (Caspase-8, Caspase-9 and Caspase-3), as well as poly(ADP-ribose) polymerase (PARP) and NOXA. A2780cis cells were treated with cisplatin (20 μM) alone, compounds (20 μM) alone or in combination with cisplatin for 20 h.
To determine the effects of the compounds on DNA damage and mitochondrial dysfunction, A2780cis cells were treated with cisplatin (20 μM) alone or the combination of cisplatin with 20 μM of compound 1-6. Replication protein A (RPA) is a single strand-specific DNA-binding protein, consisting of three subunits, RPA70, RPA32, and RPA14. RPA32 is phosphorylated in response to DNA replication stress. Western blot analysis was performed to evaluate the phosphorylation of RPA32 and histone H2AX, the induction of Noxa expression and cleavage of caspase-3. […] A2780cis cells were treated with cisplatin (50 μM) alone, 1-6 (50 μM) alone or the combination of cisplatin and compound 1-6 for 4 h. The oxygen consumption rate (OCR) was measured by a Seahorse extracellular flux analyzer.

[4] = Table 1, compound 20 μM, mean ± S.D. of triplicates
[5] = compound 5 μM + cisplatin 20 μM
[6] = compound 10 μM + cisplatin 20 μM
[7] = compound 20 μM + cisplatin 20 μM
[8] = compound 10 μM + carboplatin 200 μM
[9] = compound 20 μM + carboplatin 200 μM
[10] = compound 50 μM + carboplatin 200 μM
[11] = compound 50 μM + cisplatin 20 μM

SMILES | activation of Caspase-3/7 in combination with cisplatin compared to mdivi-1 [1] | caspase-3/7 activity (Lum), compound with cisplatin ([1]; Table 1) | caspase-3/7 activity (Lum), compound alone [1, 4] | caspase-3/7 activity (Lum), compound alone ([1]; Table 2, compound 20 μM) | caspase-3/7 activity (Lum) with compound and cisplatin (20 μM) [1, 5] | caspase-3/7 activity (Lum) with compound alone ([1]; compound 5 μM) | caspase-3/7 activity (Lum) with compound and cisplatin (20 μM) [1, 6] | caspase-3/7 activity (Lum) with compound alone ([1]; compound 10 μM) | caspase-3/7 activity (Lum) with compound and cisplatin (20 μM) [1, 7] | caspase-3/7 activity (Lum) with compound alone ([1]; compound 20 μM) | activity in the screen (Caspase-3/7 activity and microscopic examination), active / inactive [1] | Caspase-3/7 activity upon combination with cisplatin compared to cisplatin alone or compound alone [1] | cell viability after combination with carboplatin compared to carboplatin alone ([2]; in words) | viability at 10 µM [2] | viability at 20 µM [2] | viability at 50 µM [2] | Survival (%) of cells with compound and carboplatin (200 μM) [2, 8] | survival (%) of cells with compound and cisplatin (20 μM) [2, 6] | Survival (%) of cells with compound and carboplatin (200 μM) [2, 9] | survival (%) of cells with compound and cisplatin (20 μM) [2, 7] | other results
Cc1ccc(-n2c(=S)[nH]c3ccccc3c2=O)cc1F [Compound 1-17] | more effective; also recorded: more potent than mdivi-1 | 123 ± 5 Lum | 10 ± 2 Lum | 10 ± 2 Lum | 34 ± 3 Lum | 15 ± 8 Lum | 76 ± 7 Lum | 10 ± 1 Lum | 101 ± 6 Lum | 10 ± 1 Lum | active | increase in Caspase-3/7 activity | cell viability was reduced | 101 ± 2.9% | 101 ± 2.1% | 101 ± 1.4% | 90.7 ± 0.9% | 63.0 ± 1.1% | 79.3 ± 3.9% | 39.6 ± 3.0% | Survival (%) of cells with compound and carboplatin (200 μM) [2, 10]: 69.7 ± 4.1%; survival (%) of cells with compound and cisplatin (20 μM) [2, 11]: 26.7 ± 1.4%; cleavage of caspases and PARP, induction of Noxa in combination with cisplatin [3]: cleavage of Caspase-8, 9, 3, PARP and the induction of Noxa
CCc1ccccc1-n1c(=S)[nH]c2ccccc2c1=O [Compound 1-19] | more effective; also recorded: more potent than mdivi-1 | 136 ± 12 Lum | 12 ± 1 Lum | 12 ± 1 Lum | 36 ± 3 Lum | 9 ± 2 Lum | 114 ± 5 Lum | 8 ± 1 Lum | 96 ± 11 Lum | 9 ± 1 Lum | active | increase in Caspase-3/7 activity | cell viability was reduced | 103 ± 1.2% | 99.6 ± 3% | 98.5 ± 1.7% | 103.5 ± 1.6% | 47.9 ± 4.8% | 70.0 ± 2.9% | 25.3 ± 1.0% | Survival (%) of cells with compound and carboplatin (200 μM) [2, 10]: 31.6 ± 4.2%; survival (%) of cells with compound and cisplatin (20 μM) [2, 11]: 4.9 ± 1.4%; cleavage of caspases and PARP, induction of Noxa in combination with cisplatin [3]: cleavage of Caspase-8, 9, 3, PARP and the induction of Noxa
CCCn1c(=S)[nH]c2cc(OC)c(OC)cc2c1=O [Compound 1-8] | more effective; also recorded: more potent than mdivi-1 | 121 ± 4 Lum | 14 ± 2 Lum | 14 ± 2 Lum | 38 ± 4 Lum | 10 ± 1 Lum | 72 ± 1 Lum | 10 ± 1 Lum | 93 ± 4 Lum | 11 ± 1 Lum | active | increase in Caspase-3/7 activity | cell viability was reduced | 99.6 ± 2.9% | 96.3 ± 3.2% | 88.4 ± 2.1% | 89.5 + 2.1% | 53.4 ± 1.5% | 65.8 ± 3.5% | 25.9 ± 2.3% | potency at enhancing the cytotoxicity of cisplatin compared to mdivi-1 ([2]; compound 10 μM with cisplatin, FIG. 4, in words): more potent than mdivi-1; Survival (%) of cells with compound and carboplatin (200 μM) [2, 10]: 42.5 ± 2.3%; survival (%) of cells with compound and cisplatin (20 μM) [2, 11]: 17.9 ± 1.3%; cleavage of caspases and PARP, induction of Noxa in combination with cisplatin [3]: cleavage of Caspase-8, 9, 3, PARP and the induction of Noxa
